Measurements taken from a melting point compilation (Tetko et al.; mined from patent text by program, amines drawn as free bases though some values may be those of a salt).

| Structure (SMILES) | melting point [°C] |
| --- | --- |
| Cc1cc(Oc2ccc([N+](=O)[O-])cc2)n[nH]1 | 124 to 125 |
| NC1=Nc2ccccc2Cn2cccc21 | 179 to 181 |
| CC1Cc2cc3c(cc2C(c2ccc([N+](=O)[O-])cc2)=NN1c1nc(=O)n(C2CC2)s1)OCO3 (stereo unspecified) | 246 to 247 |
| CC(=O)C1=Cc2cc(Cl)cc(C)c2OC1 | 78 to 79 |
| CCc1nc2c(C)cc(C)nc2n1Cc1ccc(C(Cc2nnn[nH]2)c2ccc(OC)cc2)cc1 (stereo unspecified) | 96 to 99 |
| CC(=O)c1c(Cl)c(Cl)c([N+](=O)[O-])c2c1OCCO2 | 181 to 182 |
| Oc1cccc2c1CCC(N(CCCF)CCc1cccs1)C2 (stereo unspecified) | 105 to 109 |
| CCC(C)(C)c1cccc(NC=O)c1Br | 88 to 89 |
| CCC(=O)N1CCC(NC(=O)Nc2ccc(Cl)c(C(F)(F)F)c2)CC1 | 182 to 184 |
| NCCCc1cc(Nc2nc(-c3ccccc3)nc3ccccc23)[nH]n1 | 205 to 207 |
| O=C(/C=C/C=C(c1ccc(F)cc1)c1ccc(F)cc1)NCCCCc1cccnc1 | 155 to 156 |
| O=c1[nH]cnc2c1-c1ccc(Cl)cc1C(c1ccccc1)=NC2 | 226 to 229 |
| CN(C=O)C1(C(=O)O)CC1 | 210 |
| COc1ccc(Cl)c(Oc2c(Cl)nc(C)nc2Cl)c1 | 125 to 130 |
| O=C(c1ccn2c1CSC2c1cccnc1)c1c[nH]c2cc(-c3ncccn3)ccc12 (stereo unspecified) | 125 to 128 |
| COc1ccc(C(C[N+](=O)[O-])SC(=S)N(C)C)cc1 (stereo unspecified) | 86 to 89 |
| CCOC(=O)C(=C1CCCN1C)c1ccc([N+](=O)[O-])cc1 | 82 to 83 |
| COc1cc2c3c(c1OC)CCc1ccccc1C3CNC2 (stereo unspecified) | > 250 |
| CN1C(=O)C2c3c([nH]c4ncccc34)-c3nccn3C2C1=O (stereo unspecified) | 222 to 224 |

| Structure (SMILES) | melting point [°C] |
| --- | --- |
| COc1cc(CCCl)cc2c1OCO2 | 67 to 68 |
| CC(C)(C)NS(=O)(=O)c1cc(C(=O)Cl)ccc1Cl | 97 |
| NC(=O)C1CCC(OCCCN2CCN(c3cccc4sccc34)CC2)CC1 (stereo unspecified) | 108 |
| Clc1cnc2cc(Cl)c(Cl)cc2n1 | 137 |
| CCOC1=NS(=O)(=O)C(C(=O)OCc2ccccc2)=C1N | 144 to 147 |
| Cc1c(C)n(-c2ccccc2)c2ncn(C)c(=O)c12 | 207 to 208 |
| CCOC(=O)N(c1ccc(C(O)(C(F)(F)F)C(F)(F)F)cc1)S(C)(=O)=O | 108 to 112 |
| CCn1cc(C(=O)O)c(=O)c2cc3oc(C(=O)O)cc3nc21 | > 300 |
| O=c1ncc(Br)cn1CC=CCl | 114 to 116 |
| CC(=O)SCC(C)C1CCC2C3CCC4=C(N)C(=O)CCC4(C)C3CCC12C (stereo unspecified) | 173 to 176 |
| COC(=O)CCc1cn(Cc2ccc(C(=O)O)cc2OC)c2cc(C(=O)NCC3CCCC3)ccc12 | 181 to 182 |
| COc1ccc2c(c1O)C13CCN(C)C(C2)C1CC(C)C(=O)C3 (stereo unspecified) | 166 to 167 |
| Cc1ccccc1NC(=O)Nc1ccc(CC(=O)NC(CC(C)C)c2cc(C=CC(=O)O)on2)cc1 (stereo unspecified) | 136 to 138 |
| CSc1nc2cc(-c3cccnc3)cc(N)n2n1 | 161 to 163 |
| O=C(NCCCCN1CCC(c2c[nH]c3ccccc23)CC1)c1ccc(-c2ccc(C(F)(F)F)cc2)cc1CO | 255 |
| CC(C)(C)OC(=O)Nc1ccc(-c2ccc(-c3ccccc3)cc2)cc1N | 206 to 207 |
| COc1ccccc1-n1c(=O)[nH]c2c(C(N)=O)nc(-c3ccnc(O)c3)nc21 | 360 to 362 |
| COC(=O)[C@@H]1C[C@H](OC(=O)c2ccsc2)C(=O)[C@H]2[C@@]1(C)CC[C@H]1C(=O)O[C@H](c3ccoc3)C[C@]21C | 211 to 212 |
| COc1nc(SC)nc(OC)c1C1CC(=O)C=C(O)C1 (stereo unspecified) | 195 to 200 |

| Structure (SMILES) | melting point [°C] |
| --- | --- |
| O=C(Nc1ccc(Cl)cn1)c1ccc(OC(F)F)c2oc3ccccc3c12 | 155 to 157 |
| COC(=O)c1c(OC)ccc(N)c1OC | 78 to 80 |
| O=C(NNC(=O)C(Cl)(Cl)Cl)c1cccc(Cl)c1 | 143 to 144 |
| O=[N+]([O-])c1ccc(OC2CCN(c3ccncc3)CC2)cc1 | 142 |
| COc1cc2c(cc1[N+](=O)[O-])[nH]c(=O)c(=O)n2C | 343 |
| CC(C)(C)C(=O)Nc1ccc(Br)cc1-c1ccnc(C(F)(F)F)n1 | 153 to 157 |
| O=CNCC1c2cccc3c2N(CC3)c2ccccc2N1C=O (stereo unspecified) | 201 to 202 |
| CCC(C(=O)c1ccc(OCc2ccccc2)cc1)c1ccc(OCc2ccccc2)cc1 (stereo unspecified) | 84 |
| Cc1cc(OCCC#Cc2ccc(OC(F)(F)F)cc2)ccc1OC(C)(C)C(=O)O | 62 to 71 |
| O=[N+]([O-])c1ccc(CNc2ncnc3c2ncn3C2OC(CO)C(O)C2O)cc1 (stereo unspecified) | 168 to 169 |
| OCCn1cc(Br)c(Br)n1 | 64 to 66 |
| CCC1c2ccccc2-c2ccccc21 | 152 to 154 |
| O=C(O)C1=Cc2ccc(Br)cc2OC1C(F)(F)F (stereo unspecified) | 198 to 200 |
| OC(c1cccc(Br)c1)C1c2ccccc2CCc2ccccc21 (stereo unspecified) | 93.9 |
| CC(C)COC(=O)CCC12CCC(=O)N1C(=O)CC2 | 102 to 104 |
| O=C(c1ccc2ccccc2c1)P1(=O)Oc2ccccc2-c2ccccc21 (stereo unspecified) | 151 to 153 |
| CS(=O)(=O)OCCC1(c2ccccc2)C=CCC=C1 | 64 to 65 |
| c1cc2c3c(c1)Cc1c(ccc4c1OCO4)C3CNC2 (stereo unspecified) | 175 to 176 |
| CCn1c(=O)oc2cc(N3C[C@H](C(=O)NC)OC3=O)ccc21 | 263 to 265 |

More lines, now with the values ahead:

| melting point [°C] | Structure (SMILES) |
| --- | --- |
| 49 to 51 | O=C1C(Br)=C(c2cn(S(=O)(=O)c3ccccc3)c3ccccc23)C(=O)N1COCc1ccccc1 |
| 124 | NC(=O)c1snc(-c2cccc(C(F)(F)F)c2)c1N |
| 115 to 116 | C[C@@H](O[Si](C)(C)C(C)(C)C)[C@H]1C(=O)N([Si](C)(C)C(C)(C)C)[C@@H]1CC=O |
| 246 to 247 | CC1=NC(NC(=O)Nc2cccc(C#N)c2)C(=O)N(CC(=O)C(C)(C)C)c2ccccc21 (stereo unspecified) |
| 159 to 161 | COc1ccc2c(c1)C1(CO2)C(=O)N(C)c2ccccc21 (stereo unspecified) |
| 184 to 185 | COc1cc(C)nc2c(OCc3c(Cl)ccc(NC(=O)CN4C(=O)c5ccccc5C4=O)c3Cl)cccc12 |
| 140 to 142 | COC(=O)C(C)C1CCC2C3CC=C4CC(OC(C)=O)CCC4(C)C3CCC12C (stereo unspecified) |
| 128 to 130 | CON=C(C#N)C1=CCCN(OC(=O)Nc2ccccc2)C1 |
| 95 to 95.5 | C#CCOCc1c(C)nc2c(OCc3ccccc3Cl)cccn12 |
| 152 to 154 | CC(C)CNc1c([N+](=O)[O-])c2nnnn2c2ccccc12 |
| 165 to 166 | O=C1N(Cc2ccc(Cl)s2)c2c(C(F)(F)F)cccc2C12COc1cc3c(cc12)OCO3 (stereo unspecified) |
| 84 | CC(C)(C=NO)Cc1ccc(Cl)c(Cl)c1 |
| 38 to 40 | Fc1ccc(-c2ccc(C(F)(F)F)cn2)cc1 |
| 85 to 87 | OC1CSC(Oc2cccnc2F)C(O)C1O (stereo unspecified) |
| 135 | CCCCCOc1ccc(CCOc2ccc(/C=C(\OCC)C(=O)O)cc2OC)cc1 |
| 171 to 174 | Cc1cc(-c2nncc3c(C(C)(C)C)c(OCc4ncnn4C)nn23)no1 |
| 120 to 122 | CCOC(=O)[C@H](Cc1ccc(N)cc1)NC(=O)c1ccccc1 |
| 170 to 172 | Cc1cc(-c2ccc(F)cc2F)n(-c2ccc(S(N)(=O)=O)cc2)c1 |
| 84 to 88 | CC(C)(C)OC(=O)NCCON=C(c1ccccc1)c1cc2ccncc2[nH]1 |
| 207 to 208 | Cc1noc(NC(=O)N2CCN(c3cc(-c4ccc(F)cc4)ncn3)CC2)c1C |
| 126 to 128 | COc1ccccc1N1CCN(CCCOc2cc(C(=O)c3cc4ccccc4[nH]3)ccc2OCc2ccc(C)cc2)CC1 |
| 84 to 85 | CC(C)(C)OC(=O)N1CC[C@@H](C(=O)N[C@@H](CC(=O)OCc2ccccc2)C(=O)N[C@@H](Cc2ccccc2)C(=O)OCc2ccccc2)C1 |

| melting point [°C] | Structure (SMILES) |
| --- | --- |
| 114 to 117 | CC(=O)NCCCSc1c(Cc2cccc3ccccc23)sc2c1c(=O)n(C)c(=O)n2CC(C)C |
| 136 to 140 | O=C(O)c1ccc(CBr)c(C(F)(F)F)c1 |
| > 300 | CC(=O)c1c[nH]c2cc(-c3ccncc3)ccc2c1=O |
| 255 to 256 | O=C1c2ccccc2C(=O)N1CC(=O)N1c2ccccc2N(Cc2ccccc2)C(=O)C(Cc2ccccc2)C1c1ccccc1 (stereo unspecified) |
| 193 to 195 | Cc1c(CC2CCc3c(c4ccccc4n3C)C2=O)ncn1C(c1ccccc1)(c1ccccc1)c1ccccc1 (stereo unspecified) |
| 45 | Cc1cc(CCCCCCO)cc(C(C)(C)C)c1O |
| 77.5 to 79.5 | COc1ccc(C2(C#N)CCC(=O)CC2)cc1 |
| 208 | Cn1nc(-c2ccc(S(C)(=O)=O)cc2Cl)c2c1CCCC2=O |
| 174 to 176 | Cc1ccc2nc(-c3ccccc3C#N)ncc2c1 |
| 133 to 135 | FC(F)(F)c1ccc(-n2ccc3c(Cl)nccc32)c(Cl)c1 |
| 82 to 86 | CC(CCCc1ccc(CCCCNC(=N)NC(=O)c2nc(Cl)c(N)nc2N)cc1)NCC(O)c1cccc(O)c1 (stereo unspecified) |
| 80 to 82 | Fc1ccc(OC(CN2CCN(c3ccccc3)CC2)c2ccccc2)cc1 (stereo unspecified) |
| 203 to 205 | FC(F)(F)c1ccc(C=Nc2c3c(nc4ccccc24)CCCC3)cc1 |
| 199 to 200 | CC(=O)NCC1CN(c2cc(F)c(N3CCN(C(=O)COC(=O)n4ccnc4)CC3)c(F)c2)C(=O)O1 (stereo unspecified) |
| 118 to 120 | CC(C)(C)OC(=O)N1CCC2(CC1)NC(c1nc(-c3ccccc3)c[nH]1)Cc1c2[nH]c2ccccc12 (stereo unspecified) |
| 160 | CN1CCN(C)c2cccc(Nc3ncc(Cl)c(N[C@@H]4CCCC[C@H]4NS(C)(=O)=O)n3)c2C1=O |
| 123 to 125 | O=C(O)c1cccc(OCCCCCCc2cccc(O)c2O)c1 |
| 207 to 209 | Nc1ccc(S(=O)(=O)c2cccc3cnccc23)cc1 |
| 169 to 172 | Cn1c(=O)c(S(C)(=O)=O)c(O)c2ccccc21 |
| 48 to 50 | C=CCOC(=O)c1ccc(N)cc1 |
| 198 | C=C(CN(C)C)C(O)c1ncc2c(c1O)COC2c1ccc(F)cc1 (stereo unspecified) |
| 111 to 113 | CNC(=O)N1CC(C)(C)N(C)C(C)(C)CC1=O |
